Reference: US8802597B2, “Herbicidal pyrimidines” (E I du Pont de Nemours and Company, priority 2003, dated 2014)

Legend:
Assay type in all cases: in vivo
[1] = system: barnyardgrass (Echinochloa crus-galli); assay: Test A pre/postemergence
Outline: (§1)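 Seeds sown in loam–sand blend received a preemergence directed soil spray of test chemical in non-phytotoxic solvent with surfactant; same-formulation postemergence spray given concurrently to plants 2–10 cm tall at 1- to 2-leaf stage. Greenhouse ~ten days, then visual injury rating versus untreated controls, 0 (no effect) to 100 (complete control).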

[2] = system: giant foxtail (Setaria faberi); assay: Test A pre/postemergence
Outline: as §1

[3] = system: bermudagrass (Cynodon dactylon); assay: Test C pre/postemergence; conditions: Postemergence; for Bermudagrass plant response rating: scale 0 to 100 (0 no effect, 100 complete control)
Outline: (§2)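 Greenhouse herbicide screen, visual readout. Compound in solvent/surfactant applied preemergence at planting or postemergence to 1- to 4-leaf plants; assessed at 12–14 days on a 0–100 control scale.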

[4] = system: cocklebur (Xanthium strumarium); assay: Test C pre/postemergence; conditions: Postemergence
Outline: as §2

corn (Zea mays) = assay: Test C pre/postemergence; conditions: Postemergence
Outline: as §2

[5] = system: crabgrass (Digitaria sanguinalis); assay: Test C pre/postemergence; conditions: Postemergence
Outline: as §2

[6] = system: goosegrass (Eleusine indica); assay: Test C pre/postemergence; conditions: Postemergence
Outline: as §2

[7] = system: lambsquarters (Chenopodium album); assay: Test C pre/postemergence; conditions: Postemergence
Outline: as §2

[8] = system: velvetleaf (Abutilon theophrasti); assay: Test C pre/postemergence; conditions: Postemergence
Outline: as §2

[9] = Postemergence, 125 g ai/ha, 0 to 100 scale (0 no effect, 100 complete control)
[10] = Postemergence, 500 g ai/ha, 0 to 100 scale (0 no effect, 100 complete control)
[11] = Preemergence, 125 g ai/ha, 0 to 100 scale where 0 is no effect and 100 is complete control, approximately ten days
[12] = Preemergence, 500 g ai/ha, 0 to 100 scale where 0 is no effect and 100 is complete control, approximately ten days
[13] = 125 g ai/ha, scale 0 to 100 (0 no effect, 100 complete control)

Compound: CCOC(=O)c1nc(-c2ccc(I)cc2)nc(N)c1Cl [Compound 133]
- Plant response rating, Barnyardgrass [1, 9]: 10
- Plant response rating, Barnyardgrass [1, 10]: 40
- Plant response rating, Barnyardgrass [1, 11]: 0
- Plant response rating, Barnyardgrass [1, 12]: 15
- Plant response rating, Foxtail, Giant [2, 9]: 15
- Plant response rating, Foxtail, Giant [2, 10]: 60
- Plant response rating, Foxtail, Giant [2, 11]: 0
- Plant response rating, Foxtail, Giant [2, 12]: 30
- Plant response rating (scale of 0 to 100), Bermudagrass ([3]; 16 g ai/ha): 50
- Plant response rating (scale of 0 to 100), Bermudagrass ([3]; 31 g ai/ha): 85
- Bermudagrass plant response rating ([3]; 62 g ai/ha): 85
- Bermudagrass plant response rating ([3]; 125 g ai/ha): 85
- Plant response rating (scale of 0 to 100), Cocklebur ([4]; 16 g ai/ha): 75
- Plant response rating (scale of 0 to 100), Cocklebur ([4]; 31 g ai/ha): 85
- Plant response rating (scale of 0 to 100), Cocklebur ([4]; 62 g ai/ha): 95
- Cocklebur plant response rating [4, 13]: 95
- Plant response rating (scale of 0 to 100), Corn (corn (Zea mays); 16 g ai/ha): 35
- Plant response rating (scale of 0 to 100), Corn (corn (Zea mays); 31 g ai/ha): 40
- Plant response rating (scale of 0 to 100), Corn (corn (Zea mays); 62 g ai/ha): 60
- Corn plant response rating (corn (Zea mays); [13]): 80
- Plant response rating (scale of 0 to 100), Crabgrass ([5]; 16 g ai/ha): 50
- Plant response rating (scale of 0 to 100), Crabgrass ([5]; 31 g ai/ha): 75
- Plant response rating (scale of 0 to 100), Crabgrass ([5]; 62 g ai/ha): 75
- Crabgrass plant response rating [5, 13]: 80
- Plant response rating (scale of 0 to 100), Goosegrass ([6]; 16 g ai/ha): 15
- Plant response rating (scale of 0 to 100), Goosegrass ([6]; 31 g ai/ha): 55
- Plant response rating (scale of 0 to 100), Goosegrass ([6]; 62 g ai/ha): 65
- Goosegrass plant response rating [6, 13]: 70
- Plant response rating (scale of 0 to 100), Lambsquarters ([7]; 16 g ai/ha): 95
- Plant response rating (scale of 0 to 100), Lambsquarters ([7]; 31 g ai/ha): 95
- Plant response rating (scale of 0 to 100), Lambsquarters ([7]; 62 g ai/ha): 95
- Lambsquarters plant response rating [7, 13]: 100
- Plant response rating (scale of 0 to 100), Velvetleaf ([8]; 16 g ai/ha): 80
- Plant response rating (scale of 0 to 100), Velvetleaf ([8]; 31 g ai/ha): 85
- Plant response rating (scale of 0 to 100), Velvetleaf ([8]; 62 g ai/ha): 85
- Velvetleaf plant response rating [8, 13]: 95
